# In patent US5401768A, “2,5,6,7-tetranor-4,8-inter-m-phenylene PGI2, derivative, manufacturing process thereof and its use” (Toray Industries, Inc., priority 1987, dated 1995):
# Read-outs that look alike come from different tables or passages of the source.
# Experiments:
# [1] = tested on: platelet aggregation; assay: Platelet aggregation-inhibiting action (ADP-induced, platelet-rich plasma); format: cell-based; details: ADP 10 μM, compound added 1 minute before ADP, human PRP, read-out: IC50 (concentration which inhibits 50% platelet aggregation)
# Experimental: Blood taken from human median cubital vein was centrifuged at 800 rpm for 10 minutes and the upper part was collected as platelet-rich plasma (PRP). PRP was put into small test tubes and […] (ADP) was added thereto (final concentration of 10 μM) to induce platelet aggregation. The degree of platelet aggregation was measured as the change of turbidity determined by using a platelet aggregation measuring apparatus (commercially available from Rikadenki Co., Ltd., Tokyo). The compound was added 1 minute before the addition of ADP. The concentration which inhibits 50% aggregation was designated as IC50.
# [2] = tested on: gastric acid secretion; assay: Gastric acid secretion-inhibiting action by pylorus ligation (Shay's method); format: in vivo; details: Rattus norvegicus, injected into duodenum, 5 hours, 5 animals in a group
# Experimental: Gastric acid secretion-inhibiting action by pylorus ligation
# According to the Shay's method (Gastroeuterology 5, 43 (1945)), median section was performed on abdomen of the rat under ether anesthesia and pylorus was ligated with thread. At the same time, the compound was injected into duodenum and then the incision was closed. After 5 hours, the abdomen was incised again and whole stomach was removed after ligating esophagus. The great curvature of the stomack was incised and the content was transferred to a graduated centrifuge tube. After centrifugation at 3000 rpm for 10 minutes, the volume of the gastric juice was measured. A part of the supernatant was sampled and was titrated with 0.1N NaOH until the pH became 7 using pH star (commercially available from Radio Meter Co., Ltd.).
# [3] = tested on: gastric acid secretion; assay: Gastric acid secretion-inhibiting action (pentagastrin-stimulated, perfused stomach); format: in vivo, Male SD rat; details: PGE2 = 1; pentagastrin 0.05 μg/kg/min; femoral vein injection; area under pH curve
# Experimental: Gastric acid secretion-inhibiting action
# Male SD rat was incised in the abdomen under urethane anesthesia to open a hole at lumen of stomach. A double cannula was inserted from the hole and physiological saline was perfused in the stomack. The gastric acid flowed out was monitored by a pH meter (M. Chosh, H. Schild Br.J. Pharmacol 13, 54 (1958)). When the pH of the gastric acid was stabilized to about 4 after stimulation with continuous injection of pentagastrin at a rate of 0.05 μg/kg/min, the compound was injected through the femoral vein. As an index of the gastric acid secretion-inhibiting effect was measured using area enclosed by the curve from the point at which the pH started to increase by the gastric acid secretion-inhibiting effect to the point at which the pH is come back to the baseline. The relative effectiveness of gastric acid secretion-inhibiting effect of a compound was expressed when the value of PGE2 is 1, and the effectiveness of each compound was compared.
# [4] = tested on: pressure of carotid arteries; assay: Hypotensive effect (carotid artery pressure, chloralose anesthesia); format: in vivo, Wistar rat (male); details: Rattus norvegicus, femoral catheter injection, read-out: ED25 mmHg (dose which may reduce the blood pressure by 25 mmHg)
# Experimental: Under chloralose anesthesia, catheter was inserted to carotid arteries of Wistar rat (male). The catheter was connected to a polygraph via pressure transducer to measure the pressure of carotid arteries. The compound was injected via catheter connected to a femoral articles. The dose which may reduce the blood pressure by 25 mmHg from the dose-response curve was designated as ED25. The effectiveness of each compound was compared based on it.
# [5] = tested on: ulcer index (corpus of stomack); assay: Cytoprotection (0.2N NaOH-induced gastric lesions, oral compound); format: in vivo; details: 30 minutes before oral 0.2N NaOH, read-out: ED50 (dose by which the ulcer index decreased to 50% of control)
# Experimental: According to the method by A. Robert (Gartroerterolegy, 77(3), 443 (1979)), 30 minutes after oral administration of the compound, 0.2N NaOH was administered orally to the animals. After an hour, the animal was sacrified by chloroform anesthesia and the stomack was removed and fixed in 5% formalin solution. After fixation, the stomack was cut along the great curvature. A total length of blooding spot appearing on the corpus of stomack was measured and served as the ulcer index. When the ulcer index of the control group is taken as 100%, the dose of the compound by which the ulcer index decreased to 50% is designated as ED50.
# [6] = level of the acid (mEq/ml), read-out: ED50 Gastric Acid
# [7] = volume decreased to 50% of control, read-out: ED50 Volume of Gastric Juice
Compound,IC50 [1],"ED50 [2, 6]","ED50 [2, 7]",Relative Effectiveness to PGE2 (gastric acid secretion inhibition) [3],ED (25 mmHg) [4],ED50 [5]
"CCCCC[C@H](O)/C=C/[C@@H]1[C@H]2c3cccc(CCC(=O)O)c3O[C@H]2C[C@H]1O (relative stereo) [Compound 42, 2,5,6,7-tetranor-4,8-inter-m-phenylene PGI2]",5.8 ng/mL,3.8 mg/kg,4.6 mg/kg,3.6,0.00046 mg/kg,0.0486 mg/kg
"CCCCCC[C@H](O)/C=C/[C@@H]1[C@H]2c3cccc(CCC(=O)O)c3O[C@H]2C[C@H]1O (relative stereo) [Compound 45, 20a-homo-2,5,6,7-tetranor-4,8-inter-m-phenylene PGI2]",,,,3.5,,
"CCCCC(C)(C)[C@H](O)/C=C/[C@@H]1[C@H]2c3cccc(CCC(=O)O)c3O[C@H]2C[C@H]1O (relative stereo) [Compound 48, 16,16-dimethyl-2,5,6,7-tetranor-4,8-inter-m-phenylene PGI2]",1000 ng/mL,0.63 mg/kg,6.3 mg/kg,,0.00084 mg/kg,0.0023 mg/kg
"O=C(O)CCc1cccc2c1O[C@H]1C[C@@H](O)[C@H](/C=C/[C@@H](O)C3CCCCC3)[C@@H]21 (relative stereo) [Compound 60, 15-cyclohexyl-2,5,6,7,16,17,18,19,20-nonanor-4,8-inter-m-phenylene PGI2]",3.8 ng/mL,2.39 mg/kg,1.19 mg/kg,1.3,0.00017 mg/kg,0.00679 mg/kg
"O=C(O)CCc1cccc2c1O[C@H]1C[C@@H](O)[C@H](/C=C/[C@@H](O)c3ccccc3)[C@@H]21 (relative stereo) [Compound 71, 15-phenyl-2,5,6,7,16,17,18,19,20-nonanor-4,8-inter-m-phenylene PGI2]",2.85 ng/mL,0.034 mg/kg,0.045 mg/kg,7.1,0.00026 mg/kg,0.0015 mg/kg
"CCCOC[C@H](O)/C=C/[C@@H]1[C@H]2c3cccc(CCC(=O)O)c3O[C@H]2C[C@H]1O (relative stereo) [Compound 101, 2,5,6,7-tetranor-17-oxa-4,8-inter-m-phenylene PGI2]",,0.9 mg/kg,1.4 mg/kg,4.9,0.0015 mg/kg,0.0789 mg/kg
"CCOCC(C)(C)[C@H](O)/C=C/[C@@H]1[C@H]2c3cccc(CCC(=O)O)c3O[C@H]2C[C@H]1O (relative stereo) [Compound 108, 16,16-dimethyl-2,5,6,7-tetranor-18-oxa-4,8-inter-m-phenylene PGI2]",,2.02 mg/kg,> 10 mg/kg,7.0,,0.0035 mg/kg
"O=C(O)CCc1cccc2c1O[C@H]1C[C@@H](O)[C@H](/C=C/[C@@H](O)COc3ccccc3)[C@@H]21 (relative stereo) [Compound 120, 16-phenoxy-2,5,6,7,17,18,19,20-octanor-4,8-inter-m-phenylene PGI2]",1000 ng/mL,0.11 mg/kg,0.3 mg/kg,54,0.00051 mg/kg,0.00456 mg/kg
"CC(C)(Oc1ccccc1)[C@H](O)/C=C/[C@@H]1[C@H]2c3cccc(CCC(=O)O)c3O[C@H]2C[C@H]1O (relative stereo) [Compound 124, 16-methyl-16-phenoxy-2,5,6,7,18,19,20-heptanor-4,8-inter-m-phenylene PGI2]",,0.19 mg/kg,0.75 mg/kg,62,0.0013 mg/kg,0.003 mg/kg
"CCCCC(C)[C@H](O)/C=C/[C@@H]1[C@H]2c3cccc(CCC(=O)O)c3O[C@H]2C[C@H]1O (some centres unmarked) [Compound 51, 16-methyl-2,5,6,7-tetranor-4,8-inter-m-phenylene PGI2]",,0.21 mg/kg,0.36 mg/kg,35,0.00011 mg/kg,0.00046 mg/kg
"CCC[C@H](C)C[C@H](O)/C=C/[C@@H]1[C@H]2c3cccc(CCC(=O)O)c3O[C@H]2C[C@H]1O [Compound 54, 17-(S)-methyl-2,5,6,7-tetranor-4,8-inter-m-phenylene PGI2]",3.2 ng/mL,0.11 mg/kg,0.015 mg/kg,6.1,0.00078 mg/kg,0.00086 mg/kg
"CCCCC[C@H](O)/C=C/[C@H]1[C@H](O)CC(=O)[C@@H]1C/C=C\CCCC(=O)O [PGE2, reference compound]",,,,1,,
